According to US20250276983A1, “COMPOUNDS AND METHODS FOR MODULATING HER2” (IAMBIC THERAPEUTICS, INC., priority 2022, published 2025):
Where two headings read alike, the source gives them in different places.

Assays:
Assay type in all cases: cell-based
BaF3_HER2YVMA cells = test: Cell growth inhibition assay, BaF3_HER2YVMA; settings: 72 h, read-out: HER2-YVMA IC50 (nM), cell growth inhibition
BaF3_HER2WT cells = test: Cell growth inhibition assay, BaF3_HER2WT; settings: 72 h, 3 days treatment, CellTiterGlo 2.0, read-out: HER2 WT IC50 (nM), cell growth inhibition
BaF3_EGFRWT cells = test: Cell growth inhibition assay, BaF3_EGFRWT; settings: 72 h, 80 ng/mL recombinant human EGF, 3 days treatment, CellTiterGlo 2.0, read-out: EGFR WT IC50 (nM), cell growth inhibition
[1] = BaF3_HER2YVMA cells, 3 days treatment, CellTiterGlo 2.0

Row | IC50 (BaF3_HER2YVMA cells; [1]) | IC50 (BaF3_HER2WT cells) | IC50 (BaF3_EGFRWT cells) | Structure (SMILES) | IC50 (BaF3_HER2YVMA cells)
1 | 1500 to 5000 nM | 200 to 500 nM | 1500 to 5000 nM | C=C(F)C(=O)N1CC=C(c2ccn3ncnc(Nc4ccc(Oc5ccn6ncnc6c5)c(C)c4)c23)CC1 [Example 26, 1-(4-(4-((4-([1,2,4]triazolo[1,5-a]pyridin-7-yloxy)-3-methylphenyl)amino)pyrrolo[2,1-f][1,2,4]triazin-5-yl)-3,6-dihydropyridin-1(2H)-yl)-2-fluoroprop-2-en-1-one] | –
2 | < 200 nM | < 200 nM | 1500 to 5000 nM | Cc1cc(Nc2ncnn3ccc(C4CCN(C(=O)/C=C/CN5CCOCC5)CC4)c23)ccc1Oc1ccn2ncnc2c1 [Example 56, (E)-1-(4-(4-((4-([1,2,4]triazolo[1,5-a]pyridin-7-yloxy)-3-methylphenyl)amino)pyrrolo[2,1-f][1,2,4]triazin-5-yl)piperidin-1-yl)-4-morpholinobut-2-en-1-one] | –
3 | < 200 nM | < 200 nM | 200 to 500 nM | C=CC(=O)N1CCCC(c2ccn3ncnc(Nc4ccc(Oc5ccn6ncnc6c5)c(C)c4)c23)CC1 (stereo not drawn) [Example 9, 1-(4-(4-((4-([1,2,4]triazolo[1,5-a]pyridin-7-yloxy)-3-methylphenyl)amino)pyrrolo[2,1-f][1,2,4]triazin-5-yl)azepan-1-yl)prop-2-en-1-one] | –
4 | < 200 nM | < 200 nM | 1500 to 5000 nM | Cc1cc(Nc2ncnn3ccc(C4CN(C(=O)/C(F)=C/C5CCCN5C)C4)c23)ccc1Oc1ccn2ncnc2c1 (stereo not drawn) [Example 92, (Z)-1-(3-(4-((4-([1,2,4]triazolo[1,5-a]pyridin-7-yloxy)-3-methylphenyl)amino)pyrrolo[2,1-f][1,2,4]triazin-5-yl)azetidin-1-yl)-2-fluoro-3-(1-methylpyrrolidin-2-yl)prop-2-en-1-one] | –

More lines, now with the values behind:

Row | Structure (SMILES) | IC50 (BaF3_HER2YVMA cells; [1]) | IC50 (BaF3_HER2WT cells) | IC50 (BaF3_EGFRWT cells) | IC50 (BaF3_HER2YVMA cells)
5 | Cc1cc(Nc2ncnn3ccc(N4CC(NC(=O)/C=C/CN(C)C)C4)c23)ccc1Oc1ccn2ncnc2c1 [Example 71, (E)-N-(1-(4-((4-([1,2,4]triazolo[1,5-a]pyridin-7-yloxy)-3-methylphenyl)amino)pyrrolo[2,1-f][1,2,4]triazin-5-yl)azetidin-3-yl)-4-(dimethylamino)but-2-enamide] | 200 to 500 nM | < 200 nM | 1500 to 5000 nM | –
6 | C=C(C#N)C(=O)N1CCC(c2ccn3ncnc(Nc4ccc(Oc5ccn6ncnc6c5)c(C)c4)c23)CC1 [Example 27, 2-(4-(4-((4-([1,2,4]triazolo[1,5-a]pyridin-7-yloxy)-3-methylphenyl)amino)pyrrolo[2,1-f][1,2,4]triazin-5-yl)piperidine-1-carbonyl)acrylonitrile] | – | 500 to 1500 nM | 1500 to 5000 nM | 1500 to 5000 nM
7 | Cc1cc(Nc2ncnn3ccc(N4CCN(C(=O)C(F)Cl)CC(F)(F)C4)c23)ccc1Oc1ccn2ncnc2c1 (stereo not drawn) [Example 63, 1-(4-(4-((4-([1,2,4]triazolo[1,5-a]pyridin-7-yloxy)-3-methylphenyl)amino)pyrrolo[2,1-f][1,2,4]triazin-5-yl)-6,6-difluoro-1,4-diazepan-1-yl)-2-chloro-2-fluoroethan-1-one] | 500 to 1500 nM | 500 to 1500 nM | 1500 to 5000 nM | –
8 | C=C(CN(C)C)C(=O)N1C2CCC1CN(c1ccn3ncnc(Nc4ccc(Oc5ccn6ncnc6c5)c(C)c4)c13)C2 [Example 48, 1-(3-(4-((4-([1,2,4]triazolo[1,5-a]pyridin-7-yloxy)-3-methylphenyl)amino)pyrrolo[2,1-f][1,2,4]triazin-5-yl)-3,8-diazabicyclo[3.2.1]octan-8-yl)-2-((dimethylamino)methyl)prop-2-en-1-one] | 1500 to 5000 nM | 200 to 500 nM | 1500 to 5000 nM | –
9 | Cc1cc(Nc2ncnn3ccc(C4CCN(C(=O)/C=C/CN5CCC6(COC6)C5)CC4)c23)ccc1Oc1ccc2c(c1)ncn2C [Example 129, (E)-1-(4-(4-((3-methyl-4-((1-methyl-1H-benzo[d]imidazol-5-yl)-oxy)phenyl)amino)-pyrrolo[2,1-f][1,2,4]triazin-5-yl)piperidin-1-yl)-4-(2-oxa-6-azaspiro[3.4]octan-6-yl)but-2-en-1-one] | < 200 nM | < 200 nM | 1500 to 5000 nM | –
